Assay: wn = mass fraction of the nth substance listed
Conditions: 101 kPa, Liquid, Digital holographic interferometer

CCC(C)CO (centres undefined) [2-methyl-1-butanol] + CCCCCCC
binary diffusion coefficient [m2/s]
Conditions | w1 = 0.05 | w1 = 0.15 | w1 = 0.25 | w1 = 0.35 | w1 = 0.45 | w1 = 0.55 | w1 = 0.65 | w1 = 0.75 | w1 = 0.85 | w1 = 0.95
288.15 K | 1.02e-09 | 8.91e-10 | 7.99e-10 | 6.91e-10 | 6.03e-10 | 5.26e-10 | 4.81e-10 | 4.52e-10 | 4.61e-10 | 4.83e-10
298.15 K | 1.24e-09 | 1.11e-09 | 1.01e-09 | 9.24e-10 | 8.43e-10 | 7.55e-10 | 7.02e-10 | 6.8e-10 | 6.9e-10 | 7.04e-10
308.15 K | 1.49e-09 | 1.34e-09 | 1.24e-09 | 1.15e-09 | 1.08e-09 | 9.81e-10 | 9.31e-10 | 9.25e-10 | 9.36e-10 | 9.41e-10
318.15 K | 1.73e-09 | 1.58e-09 | 1.5e-09 | 1.4e-09 | 1.33e-09 | 1.24e-09 | 1.17e-09 | 1.16e-09 | 1.18e-09 | 1.19e-09

CC(C)CCO [3-methylbutan-1-ol] + CCCCCCC
binary diffusion coefficient [m2/s]
Conditions | w1 = 0.05 | w1 = 0.15 | w1 = 0.25 | w1 = 0.35 | w1 = 0.45 | w1 = 0.55 | w1 = 0.65 | w1 = 0.75 | w1 = 0.85 | w1 = 0.95
288.15 K | 1.74e-09 | 1.25e-09 | 9.07e-10 | 6.95e-10 | 6.1e-10 | 5.7e-10 | 6.18e-10 | 6.65e-10 | 7.11e-10 | 7.46e-10
298.15 K | 1.99e-09 | 1.52e-09 | 1.17e-09 | 9.75e-10 | 8.69e-10 | 8.42e-10 | 8.91e-10 | 9.46e-10 | 9.85e-10 | 1.01e-09
308.15 K | 2.28e-09 | 1.83e-09 | 1.44e-09 | 1.27e-09 | 1.15e-09 | 1.13e-09 | 1.17e-09 | 1.22e-09 | 1.29e-09 | 1.32e-09
318.15 K | 2.54e-09 | 2.09e-09 | 1.75e-09 | 1.55e-09 | 1.43e-09 | 1.4e-09 | 1.46e-09 | 1.52e-09 | 1.56e-09 | 1.58e-09

[Cl-].[Li+] [lithium chloride] + O
298.15 K
Conditions | binary diffusion coefficient [m2/s]
w1 = 0.011 | 1.31e-09
w1 = 0.027 | 1.23e-09

[Cl-].[K+] [potassium chloride] + O
Conditions | binary diffusion coefficient [m2/s]
298.15 K, w1 = 0.025 | 1.85e-09

[Cl-].[Na+] [sodium chloride] + O
Conditions | binary diffusion coefficient [m2/s]
298.15 K, w1 = 0.018 | 1.47e-09

— the NIST ThermoML archive (doi:10.1016/j.jct.2018.10.023)
